Results as given in patent publication US20260325504A1, “Genetically Engineered Human Pituitary Corticotroph Tumor Organoids Exhibit Divergent Responses to Selective Glucocorticoid Receptor Modulators” (Corcept Therapeutics Incorporated, priority 2022, published 2026).
“Also recorded” adds a separate entry of the source. Starred links: 1 amine or outer side, 2 acyl side, 3 side chain; linkers in the order of their positions; H or OH if unused. Non-standard residues stand in square brackets, D forms with d. Residues, ends and D or L forms follow the SMILES beside them. Groups on a side chain read outwards from the residue. *: point of attachment. Ethylenediamine = C(CN[*:2])N[*:1]; Hyp = O=C(O)[C@@H]1C[C@@H](O)CN1; Phg = N[C@H](C(=O)O)c1ccccc1; CO = O=C([*:1])[*:2]; Bn = c1ccc(C*)cc1

Assays:
[1] = SST14 and SST28; cited from earlier work
iPSC^USP48MV organoids [2] = assay: EdU uptake (proliferation) in iPSCUSP48MV organoids; format: cell-based, human; conditions: 100 nM pretreatment 2 h before mifepristone
Experimental: (§1) iPSCs were stained for pituitary specific hormones including luteinizing hormone (LH), follicle-stimulating hormone (FSH), growth hormone (GH), prolactin (PRL), ACTH, cytokeratin 8/18 (CAM5.2), pituitary transcription factor PIT-1 and neuroendocrine marker Synaptophysin (Table 5). Cultures were immunostained for proliferation marker EdU (Click-IT EdU Alexa Fluor 555 Imaging Kit, Thermo Fisher Scientific C10338). Antibody dilutions were determined based on manufacturer guidelines and antibody titration (Table 5). Staining was conducted according to previously published protocols. Briefly, organoids and iPSCs grown in 8-well glass bottom chamber slides were fixed using 3.7% formaldehyde, washed with DPBS, permeabilized with 0.5% Triton X-100 (SIGMA X-100, PBS-T, 20 min at room temperature), washed with 0.01% PBS-T, and blocked with 2% donkey serum (Jackson Immuno Research 017-000-121) for 1 hour at room temperature. After blocking, primary antibodies were added and incubated overnight at 4° C. Slides were washed with 0.01% PBS-T and incubated with secondary antibodies (Table 5) with Hoechst (Thermo Fisher Scientific H1399) for 1 hour at room temperature. Organoids were washed and stored in PBS at 4° C. until microscopic analysis. High content confocal microscopy was performed using the Nikon Ti2-E Inverted Microscope (with a Crest X-Light V2 L-FOV Spinning Disk Confocal) at the University of Arizona Cancer Center, or a ZEISS LSM880 34 channel Laser Scanning Confocal Microscope at University of Arizona Marley Imaging Core. Fluorescence intensity was quantified as the percentage of marker-positive cells versus total cells, using Nikon Elements Software (Version 5.21.05). Proliferation for each iPSC line was quantified as the percentage of EdU-positive cells versus total cells.
(§2) Sonic Hedgehog (SHH) was withdrawn from the organoid growth media 16 hours prior to treatment. The experimental treatment groups included: vehicle (Veh), mifepristone (500 nM, Selleckchem S2606), GANT61 (5 μM, Stemcell Technologies 73692), ketoconazole (Keto, 10 μM, Selleckchem S1353), pasireotide (Pas, 100 nM, Target Mol TP2207-SB001), octreotide (Oct, 100 nM, Selleckchem P1017), mifepristone plus GANT61, mifepristone plus Keto, mifepristone plus Pas, relacorilant (500 nM, Corcept Therapeutics CORT125134), relacorilant plus Pas, relacorilant plus Oct, or dexamethasone (Dexa, 100 nM, SIGMA S4902). In the combination treatments, cultures were pretreated with the GANT61, Keto, Pas or Oct for 2 hours prior to treatment with mifepristone or Rela. […] The IC50 values used for each hPITO line for each drug were determined based on dose responses (FIG. 12). […]

SSTR5 = conditions: cited from earlier work
ACTH = assay: Spectral flow cytometry, ACTH positive cells, hPITOs; format: cell-based, human; conditions: hPITO, pretreatment before mifepristone, FIGS. 9I, J
Description: 1.3 Generation and Culture of Human PitNET Tissue Organoids (hPITOs)
Patients undergoing planned transsphenoidal surgery for PitNETs were identified in the outpatient neuroendocrinology and neurosurgery clinics and collected by the St. Joseph's Hospital and Barrow Neurological Institute Biobank under the collection protocol PHXA-05TS038, and outcomes data protocol PHXA-0004-72-29 with approval of the Institutional Review Board (IRB) and patient consent. De-identified samples were shipped in collection and transport media (Table 3) to the Zavros laboratory (University of Arizona) for processing within 24 hours of collection. Resected PitNET tissues were washed with Dulbeccos Phosphate Buffered Saline (DPBS) supplemented with 1× Penicillin/Streptomycin, 1× Kanamycin and 1× Amphotericin/Gentamycin, minced into smaller pieces, and incubated with digestion buffer (Dulbecco's Modified Eagle Medium/Nutrient Mixture F-12 (DMEM/F12) supplemented with 0.4% Collagenase 2, 0.1% Hyaluronic Acid, 0.03% Trypsin). The tissue was incubated with Accutase (Thermo Fisher Scientific) for a further 5 minutes, and the cells were pelleted and washed with DPBS supplemented with antibiotics. Dissociated cells were then seeded as Matrigel™ domes in culture dishes and overlaid with growth media (Table 4). Media was replaced every 3 days and organoids were harvested for downstream experiments or passaged after 15 days of culture (FIG. 1B).
Sonic Hedgehog (SHH) was withdrawn from the organoid growth media 16 hours prior to treatment. […] The IC50 values used for each hPITO line for each drug were determined based on dose responses (FIG. 12). […]

[3] = system: patients with Cushing's syndrome; conditions: pasireotide monotherapy, patients with CD, cited from earlier work
iPSC^ctrl organoids [4] = assay: ACTH secretion ELISA, iPSCctrl organoids; format: cell-based, human; conditions: FIG. 6G
Experimental: (§3) Sonic Hedgehog (SHH) was withdrawn from the organoid growth media 16 hours prior to treatment. The experimental treatment groups included: vehicle (Veh), mifepristone (500 nM, Selleckchem S2606), GANT61 (5 μM, Stemcell Technologies 73692), ketoconazole (Keto, 10 μM, Selleckchem S1353), pasireotide (Pas, 100 nM, Target Mol TP2207-SB001), octreotide (Oct, 100 nM, Selleckchem P1017), mifepristone plus GANT61, mifepristone plus Keto, mifepristone plus Pas, relacorilant (500 nM, Corcept Therapeutics CORT125134), relacorilant plus Pas, relacorilant plus Oct, or dexamethasone (Dexa, 100 nM, SIGMA S4902). In the combination treatments, cultures were pretreated with the GANT61, Keto, Pas or Oct for 2 hours prior to treatment with mifepristone or Rela. PitNET tissue derived organoids hPITO36, hPITO37, hPITO38, hPITO39, and hPITO40 were treated with the following experimental conditions: Vehicle (1), pasireotide (2), relacorilant (3), relacorilant & pasireotide (4), mifepristone (5), mifepristone & pasireotide (6). The IC50 values used for each hPITO line for each drug were determined based on dose responses (FIG. 12). All organoid cultures were treated for 48 hours prior to analysis.
(§4) Organoid conditioned media was collected and ACTH secretion using an ELISA according to the manufacturer's protocol (Novus Biologicals Human ACTH ELISA Kit NBP2-66401). The optical density was measured at a wavelength of 450 nm, and ACTH concentration (pg/mL) was interpolated using a standard curve with a 4-parameter logistic regression analysis using GraphPad Prism (v9.3.1).

iPSC^USP48MV organoids [5] = assay: ACTH secretion ELISA, iPSCUSP48 organoids; format: cell-based, human; conditions: FIG. 7G
Experimental: as §3, §4

iPSC^ctrl organoids [6] = assay: EdU uptake (proliferation) in iPSCctrl organoids; format: cell-based, human; conditions: 100 nM pretreatment 2 h before mifepristone
Experimental: as §1, §2

hPITO37 = assay: Dose response of hPITO37; format: cell-based, human; conditions: hPITO37, FIG. 12
Experimental: as §3

Compound: SST
- half-life [1]: < 3 min

Compound: NCCCC[C@@H]1NC(=O)[C@@H](Cc2c[nH]c3ccccc23)NC(=O)[C@H](c2ccccc2)NC(=O)[C@@H]2C[C@@H](OC(=O)NCCN)CN2C(=O)[C@H](Cc2ccccc2)NC(=O)[C@H](Cc2ccc(OCc3ccccc3)cc2)NC1=O [pasireotide] (cyclo([Hyp]([CO-Ethylenediamine])[Phg][dW]KY(Bn)F))
- effect on proliferative response to mifepristone (EdU uptake) (iPSC^USP48MV organoids [2]): no effect
- binding to / activation of SSTR5 (SSTR5): high-affinity binding to SSTR5; also recorded: preferentially binds or activates somatostatin receptor type 5 (SSTR5)
- effect on mifepristone-induced increase of ACTH expressing cells (ACTH): not inhibited
- patients with normalized cortisol [3]: up to 42%
- patients with normalized urinary free cortisol ([3]; two large prospective studies): up to 42%
- effect on ACTH secretion in response to mifepristone (iPSC^ctrl organoids [4]; 100 nM pretreatment 2 h before mifepristone): significantly reduced ACTH secretion
- reduction of hormone (ACTH) secretion in combination with relacorilant (iPSC^ctrl organoids [4]; with relacorilant): greater magnitude compared to that of octreotide plus relacorilant
- effect on ACTH secretion in response to mifepristone (iPSC^USP48MV organoids [5]; iPSCUSP48, 100 nM pretreatment 2 h before mifepristone): significantly reduced ACTH secretion
- reduction of hormone (ACTH) secretion in combination with relacorilant (iPSC^USP48MV organoids [5]; iPSCUSP48MV, with relacorilant): greater magnitude compared to that of octreotide plus relacorilant
- effect on proliferative response to mifepristone (EdU uptake) (iPSC^ctrl organoids [6]): no effect
- drug response (sensitivity) (hPITO37): insensitive
